Test results as given in EPA's ToxRefDB 2.

Assays:
[1] = test system: mouse; settings: Subchronic oral toxicity in rodents, b6c3f1, Gavage/Intubation, dose end: 3 month, group: systemic
[2] = test system: rat; settings: Subchronic oral toxicity in rodents, fischer, Gavage/Intubation, dose end: 3 month, group: systemic
[3] = test system: rat; settings: Subchronic oral toxicity in rodents, sprague dawley, Feed, dose end: 3 month, group: systemic, systemic / clinical chemistry / glucose / glucose + systemic / clinical chemistry / phosphorus / phosphorus + systemic / clinical chemistry…
[4] = test system: mouse; settings: Carcinogenicity; cd1; Oral; Feed; dose end: 24 month; group: systemic; systemic / in life observation / body weight / body weight + systemic / pathology microscopic / kidney / basophilia + systemic / pathology …
[5] = test system: rat; settings: Combined chronic toxicity/carcinogenicity, sprague dawley, Oral, Feed, dose end: 24 month, group: systemic
[6] = test system: rat; settings: Prenatal developmental toxicity study, sprague dawley, Oral, Gavage/Intubation, dose end: 19 GD
[7] = test system: rat; settings: Multigenerational reproductive toxicity study, sprague dawley, Oral, Feed, dose end: 2 generation
[8] = test system: rat; settings: Subchronic oral toxicity in rodents, other, Feed, dose end: 90 day, group: systemic
[9] = test system: dog; settings: Subchronic oral toxicity in nonrodent, beagle, Feed, dose end: 90 day, group: systemic
[10] = test system: rat; settings: Combined chronic toxicity/carcinogenicity, sprague dawley, Oral, Feed, dose end: 2 year, group: systemic
[11] = test system: mouse; settings: Carcinogenicity, cd1, Oral, Feed, dose end: 18 month, group: systemic
[12] = test system: dog; settings: Chronic toxicity; beagle; Oral; Feed; dose end: 1 year; group: systemic; systemic / organ weight / kidney / absolute + systemic / pathology gross / liver / enlarged + systemic / pathology microscopic / epididymis…
[13] = test system: rat; settings: Multigenerational reproductive toxicity study, other, Oral, Feed, dose end: 2 generation
[14] = test system: rat; settings: Subchronic oral toxicity in rodents, wistar, Feed, dose end: 86 day
[15] = test system: rabbit; settings: Prenatal developmental toxicity study, himalayan, Oral, Gavage/Intubation, dose end: 18 GD
[16] = test system: mouse; settings: Combined chronic toxicity/carcinogenicity, b6c3f1, Oral, Feed, dose end: 2 year
[17] = test system: dog; settings: Chronic toxicity, beagle, Oral, Feed, dose end: 1 year, group: cholinesterase
[18] = test system: rat; settings: Prenatal developmental toxicity study, sprague dawley, Oral, Gavage/Intubation, dose end: 15 GD
[19] = test system: dog; settings: Chronic toxicity, beagle, Oral, Feed, dose end: 1 year, group: systemic
[20] = test system: dog; settings: Subchronic oral toxicity in nonrodent, beagle, Feed, dose end: 90 day, group: systemic; remark: listed apart in the source
[21] = test system: rat; settings: Subchronic oral toxicity in rodents, sprague dawley, Feed, dose end: 90 day, group: systemic, systemic / clinical chemistry / alkaline phosphatase (alp/alk) / alkaline phosphatase (alp/alk) + systemic / hematology / mean corpuscular …
[22] = test system: rat; settings: Combined chronic toxicity/carcinogenicity, sprague dawley, Oral, Feed, dose end: 24 month, group: systemic; remark: listed apart in the source
[23] = systemic / in life observation / body weight / body weight + systemic / in life observation / body weight / body weight gain + systemic / in…
[24] = systemic / clinical chemistry / alanine aminotransferase (alt/sgpt) / alanine aminotransferase (alt/sgpt) + systemic / clinical chemistry / …
[25] = systemic / pathology microscopic / liver / hyperplasia + systemic / pathology microscopic / liver / inflammation + systemic / hematology / …
[26] = systemic / pathology microscopic / stomach / inflammation
[27] = systemic / pathology microscopic / stomach / inflammation + systemic / in life observation / body weight / body weight + systemic / in life …
[28] = group: developmental, developmental / developmental malformation / bone / unossified + systemic / in life observation / body weight / fetal weight
[29] = group: maternal, systemic / in life observation / body weight / body weight gain + systemic / in life observation / clinical signs / defecation (diarrhea) + …
[30] = group: offspring, systemic / in life observation / body weight / offspring (pup) weight + systemic / in life observation / body weight / offspring (pup) …
[31] = group: parental, systemic / in life observation / body weight / body weight + systemic / in life observation / clinical signs / soft stools
[32] = group: parental, systemic / in life observation / body weight / body weight + systemic / in life observation / clinical signs / soft stools + systemic / in …
[33] = systemic / in life observation / body weight / body weight gain
[34] = systemic / urinalysis / specific gravity/osmolality / specific gravity/osmolality + systemic / urinalysis / volume / volume
[35] = systemic / in life observation / body weight / body weight gain + systemic / organ weight / liver / relative to body weight + systemic / …
[36] = systemic / in life observation / body weight / body weight + systemic / pathology microscopic / stomach / cyst + systemic / pathology …
[37] = group: offspring, systemic / in life observation / body weight / offspring (pup) weight + systemic / in life observation / clinical signs / reduced body size
[38] = group: parental, systemic / in life observation / body weight / body weight gain
[39] = group: reproductive, reproductive / reproductive performance / gestational length / gestational length
[40] = group: cholinesterase, cholinesterase / cholinesterase / cholinesterase / brain (regional) cholinesterase (che) + cholinesterase / cholinesterase / cholinesterase…
[41] = group: cholinesterase, cholinesterase / cholinesterase / cholinesterase / erythrocyte cholinesterase (che)
[42] = group: systemic, systemic / pathology microscopic / seminal vesicle / colloid content
[43] = group: maternal, reproductive / reproductive performance / resorptions / resorptions + reproductive / reproductive performance / aborted / aborted + systemic…
[44] = group: systemic, systemic / in life observation / body weight / body weight + systemic / in life observation / body weight / body weight gain + systemic / in…
[45] = group: systemic, systemic / organ weight / adrenal gland / nos
[46] = cholinesterase / cholinesterase / cholinesterase / brain cholinesterase (che) + cholinesterase / cholinesterase / cholinesterase / plasma …
[47] = cholinesterase / cholinesterase / cholinesterase / brain cholinesterase (che) + cholinesterase / cholinesterase / cholinesterase / …
[48] = group: developmental, developmental / developmental malformation / bone / supernumerary + developmental / developmental malformation / bone / unossified
[49] = group: maternal, systemic / in life observation / body weight / body weight gain + systemic / in life observation / clinical signs / salivation + systemic / …
[50] = systemic / pathology microscopic / liver / hyperplasia + systemic / pathology microscopic / liver / hypertrophy + systemic / clinical …
[51] = systemic / in life observation / body weight / body weight gain + systemic / clinical chemistry / alanine aminotransferase (alt/sgpt) / …
[52] = systemic / clinical chemistry / gamma glutamyl transferase (ggt) / gamma glutamyl transferase (ggt) + systemic / organ weight / kidney / …
[53] = systemic / hematology / anemia / anemia - hemolytic + systemic / hematology / erythrocyte (rbc) count differential / erythrocyte (rbc) + …

Compound: C=CCc1ccc(OC)cc1 [Estragole]
- LOAEL [1, 23]: > 600 mg/kg/day
- NEL [1, 23]: 37.5 mg/kg/day
- NOAEL [1, 23]: ≥ 600 mg/kg/day
- LEL ([1]; systemic / in life observation / body weight / body weight + systemic / in life observation / body weight / body weight gain + systemic / …): 75 mg/kg/day
- LOAEL [2, 24]: > 600 mg/kg/day
- NOAEL [2, 24]: ≥ 600 mg/kg/day
- LEL [2, 25]: 37.5 mg/kg/day
- NEL [2, 25]: < 37.5 mg/kg/day

Compound: O=C(O)CNCP(=O)(O)O [Glyphosate]
- LEL [3]: 63 mg/kg/day
- LOAEL [3]: > 1270 mg/kg/day
- NEL [3]: < 63 mg/kg/day
- NOAEL [3]: ≥ 1270 mg/kg/day
- LEL [4]: 4500 mg/kg/day
- LOAEL [4]: 4500 mg/kg/day
- NEL [4]: 750 mg/kg/day
- NOAEL [4]: 750 mg/kg/day
- LEL [5, 26]: 457 mg/kg/day
- LOAEL [5, 26]: 457 mg/kg/day
- NEL [5, 27]: 113 mg/kg/day
- NOAEL [5, 27]: 113 mg/kg/day
- LEL [6, 28]: 3500 mg/kg/day
- LOAEL [6, 28]: 3500 mg/kg/day
- NEL [6, 28]: 1000 mg/kg/day
- NOAEL [6, 28]: 1000 mg/kg/day
- LEL [6, 29]: 3500 mg/kg/day
- LOAEL [6, 29]: 3500 mg/kg/day
- NEL [6, 29]: 1000 mg/kg/day
- NOAEL [6, 29]: 1000 mg/kg/day
- LEL [7, 30]: 1500 mg/kg/day
- LOAEL [7, 30]: 1500 mg/kg/day
- NEL [7, 30]: 500 mg/kg/day
- NOAEL [7, 30]: 500 mg/kg/day
- NEL [7, 31]: 500 mg/kg/day
- NOAEL [7, 31]: 500 mg/kg/day
- LEL [7, 32]: 1500 mg/kg/day
- LOAEL [7, 32]: 1500 mg/kg/day

Compound: CCS(=O)(=O)c1cccnc1S(=O)(=O)NC(=O)Nc1nc(OC)cc(OC)n1 [Rimsulfuron]
- LEL [8, 24]: 3.35 mg/kg/day
- NEL [8, 24]: < 3.35 mg/kg/day
- NOAEL [8, 24]: 102 mg/kg/day
- LOAEL [8, 33]: 495 mg/kg/day
- LEL [9, 34]: 6.25 mg/kg/day
- LOAEL [9, 34]: 125 mg/kg/day
- NEL [9, 34]: < 6.25 mg/kg/day
- NOAEL ([9]; systemic / urinalysis / specific gravity/osmolality / specific gravity/osmolality + systemic / urinalysis / volume / volume + systemic / …): 6.25 mg/kg/day
- LEL ([10]; systemic / clinical chemistry / alkaline phosphatase (alp/alk) / alkaline phosphatase (alp/alk)): 11.8 mg/kg/day
- LOAEL ([10]; systemic / in life observation / body weight / body weight gain + systemic / organ weight / liver / relative to body weight): 121 mg/kg/day
- NEL [10, 35]: 1 mg/kg/day
- NOAEL [10, 35]: 11.8 mg/kg/day
- LOAEL [11, 36]: 1130 mg/kg/day
- NEL [11, 36]: 3.47 mg/kg/day
- NOAEL [11, 36]: 351 mg/kg/day
- LEL ([11]; systemic / pathology microscopic / testes / degeneration): 35.5 mg/kg/day
- LEL [12]: 81.8 mg/kg/day
- LOAEL [12]: 81.8 mg/kg/day
- NEL [12]: 1.6 mg/kg/day
- NOAEL [12]: 1.6 mg/kg/day
- LEL [13, 37]: 1320 mg/kg/day
- LOAEL [13, 37]: 1320 mg/kg/day
- NEL [13, 37]: 264 mg/kg/day
- NOAEL [13, 37]: 264 mg/kg/day
- LEL [13, 38]: 830 mg/kg/day
- LOAEL [13, 38]: 830 mg/kg/day
- NEL [13, 38]: 165 mg/kg/day
- NOAEL [13, 38]: 165 mg/kg/day
- LEL [13, 39]: 1020 mg/kg/day
- LOAEL [13, 39]: > 1020 mg/kg/day
- NEL [13, 39]: 204 mg/kg/day
- NOAEL [13, 39]: ≥ 1020 mg/kg/day

Compound: CCOP(=S)(Oc1cnc(C(C)(C)C)nc1)OC(C)C (stereo not given) [Tebupirimfos]
- LOAEL [14, 40]: 1 mg/kg/day
- NEL [14, 40]: 0.2 mg/kg/day
- NOAEL [14, 40]: 0.3 mg/kg/day
- LEL [14, 41]: 0.3 mg/kg/day
- LOAEL ([14]; group: systemic, systemic / in life observation / body weight / body weight gain + systemic / in life observation / food consumption / food consumption): 3.6 mg/kg/day
- NOAEL ([14]; group: systemic, systemic / in life observation / body weight / body weight gain + systemic / in life observation / food consumption / food consumption + …): 1 mg/kg/day
- LEL [14, 42]: 0.2 mg/kg/day
- NEL [14, 42]: < 0.2 mg/kg/day
- LEL [15, 41]: 0.3 mg/kg/day
- LOAEL [15, 41]: 0.3 mg/kg/day
- NEL [15, 41]: 0.1 mg/kg/day
- NOAEL [15, 41]: 0.1 mg/kg/day
- LOAEL ([15]; group: maternal, reproductive / reproductive performance / resorptions / resorptions + reproductive / offspring survival early / live fetuses / live fetuses): 0.3 mg/kg/day
- LEL ([15]; group: maternal, reproductive / reproductive performance / resorptions / resorptions + reproductive / offspring survival early / live fetuses / live fetuses…): 0.3 mg/kg/day
- NEL [15, 43]: 0.1 mg/kg/day
- NOAEL [15, 43]: 0.1 mg/kg/day
- LEL [16, 41]: 0.16 mg/kg/day
- LOAEL [16, 41]: 0.16 mg/kg/day
- NEL [16, 41]: < 0.16 mg/kg/day
- NOAEL [16, 41]: < 0.16 mg/kg/day
- LOAEL [16, 44]: 38.8 mg/kg/day
- NOAEL [16, 44]: 4.53 mg/kg/day
- LEL [16, 45]: 0.52 mg/kg/day
- NEL [16, 45]: < 0.52 mg/kg/day
- LEL [17, 46]: 0.005 mg/kg/day
- NEL [17, 46]: < 0.005 mg/kg/day
- LOAEL [17, 47]: 0.125 mg/kg/day
- NOAEL [17, 47]: 0.02 mg/kg/day

Compound: COC(=O)c1c(C(F)F)nc(C(F)(F)F)c(C2=NCCS2)c1CC(C)C [Thiazopyr]
- LEL [18, 48]: 250 mg/kg/day
- LOAEL [18, 48]: 250 mg/kg/day
- NEL [18, 48]: 100 mg/kg/day
- NOAEL [18, 48]: 100 mg/kg/day
- LOAEL [18, 49]: 250 mg/kg/day
- NEL [18, 49]: 10 mg/kg/day
- NOAEL [18, 49]: 100 mg/kg/day
- LEL ([18]; group: maternal, systemic / organ weight / liver / nos): 100 mg/kg/day
- LOAEL ([19]; systemic / pathology microscopic / liver / hyperplasia + systemic / pathology microscopic / liver / hypertrophy): 7.8 mg/kg/day
- LEL [19, 50]: 7.8 mg/kg/day
- NEL [19, 50]: 0.8 mg/kg/day
- NOAEL [19, 50]: 0.8 mg/kg/day
- LOAEL [20, 33]: 3 mg/kg/day
- NEL [20, 51]: 2 mg/kg/day
- NOAEL [20, 51]: 2 mg/kg/day
- LEL ([20]; systemic / in life observation / body weight / body weight gain + systemic / clinical chemistry / albumin-globulin ratio / albumin-globulin …): 3 mg/kg/day
- LEL [21]: 68 mg/kg/day
- LOAEL [21]: 68 mg/kg/day
- NEL [21]: 6.6 mg/kg/day
- NOAEL [21]: 6.6 mg/kg/day
- LOAEL [22, 52]: 44.2 mg/kg/day
- NOAEL [22, 52]: 4.4 mg/kg/day
- LEL [22, 53]: 5.6 mg/kg/day
- NEL [22, 53]: 0.6 mg/kg/day
